PubChem BioAssay AID248 (DTP/NCI, 2004)
Several values for one entry are separate records, joined by “and”; a condition that tells them apart may be missing. Equal values may be shown once. Toxic doses and inconclusive results are not listed.

System: L1210 leukemia ip in BDF1 mice, survival T/C
Assay: NCI In Vivo Anticancer Drug Screen. Data for tumor model L1210 Leukemia (intraperitoneal) in B6D2F1 (BDF1) mice
Details: endpoint: mean survival time, higher = longer survival
Outline: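 Transplantable tumor model; survival measured in treated vs vehicle control mice. Value = treated/control.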

[1] = dose: 50.0 mg/kg/injection, schedule: Q01DX009 (ip), vehicle: saline
[2] = dose: 100.0 mg/kg/injection, schedule: Q01DX009 (ip), vehicle: saline
[3] = dose: 100.0 mg/kg/injection, schedule: Q01DX001 (ip), vehicle: saline
[4] = dose: 100.0 mg/kg/injection, schedule: Q01DX001 (ip), vehicle: saline with Tween-80
[5] = dose: 200.0 mg/kg/injection, schedule: Q01DX001 (ip), vehicle: saline with Tween-80
[6] = dose: 400.0 mg/kg/injection, schedule: Q01DX001 (ip), vehicle: saline with Tween-80

OC1C2CC3CC(C2)CC1C3 (configuration not stated)
T/C (dose: 100.0 mg/kg/injection, schedule: Q04DX002 (ip), vehicle: Klucel (hydroxypropylcellulose) (HPC)): 102 % of control | T/C (dose: 200.0 mg/kg/injection, schedule: Q04DX002 (ip), vehicle: Klucel (hydroxypropylcellulose) (HPC)): 98 % of control | T/C (dose: 400.0 mg/kg/injection, schedule: Q04DX002 (ip), vehicle: Klucel (hydroxypropylcellulose) (HPC)): 94 % of control

COc1cc(C(=O)Nc2ccc(N(C)C)cc2)cc(OC)c1OC
T/C (dose: 25.0 mg/kg/injection, schedule: Q01DX009 (ip), vehicle: saline): 103 % of control | T/C (dose: 25.0 mg/kg/injection, schedule: Q04DX003 (ip), vehicle: saline): 108 % of control | T/C [1]: 108 % of control | T/C (dose: 50.0 mg/kg/injection, schedule: Q04DX003 (ip), vehicle: saline): 97 % of control | T/C [2]: 97 % of control | T/C (dose: 100.0 mg/kg/injection, schedule: Q04DX003 (ip), vehicle: saline): 100 % of control | T/C (dose: 200.0 mg/kg/injection, schedule: Q01DX009 (ip), vehicle: saline): 104 % of control | T/C (dose: 200.0 mg/kg/injection, schedule: Q04DX003 (ip), vehicle: saline): 103 % of control | T/C (dose: 400.0 mg/kg/injection, schedule: Q04DX003 (ip), vehicle: saline): 100 % of control

c1ccc([P+](CC2CCCO2)(c2ccccc2)c2ccccc2)cc1 (configuration not stated)
T/C [3]: 113 % of control

Nc1ccc(CC2=C(Br)CNC(=O)N2)cc1
T/C (dose: 100.0 mg/kg/injection, schedule: Q01DX001 (ip), vehicle: Klucel (hydroxypropylcellulose) (HPC)): 102 % of control | T/C (dose: 200.0 mg/kg/injection, schedule: Q01DX001 (ip), vehicle: Klucel (hydroxypropylcellulose) (HPC)): 103 % of control

O=NN(CCCl)C(=O)NC1CCS(=O)(=O)C1 (configuration not stated) (tested in a mixture with another compound)
T/C (dose: 6.0 mg/kg/injection, schedule: Q01DX001 (ip), vehicle: other): 177 % of control | T/C (dose: 9.0 mg/kg/injection, schedule: Q01DX001 (ip), vehicle: other): 270 % of control | T/C (dose: 13.0 mg/kg/injection, schedule: Q01DX001 (ip), vehicle: other): 300 % of control | T/C (dose: 20.0 mg/kg/injection, schedule: Q01DX001 (ip), vehicle: other): 200 % of control | T/C (dose: 30.0 mg/kg/injection, schedule: Q01DX001 (ip), vehicle: other): 223 % of control | T/C (dose: 44.0 mg/kg/injection, schedule: Q01DX001 (ip), vehicle: other): 184 % of control | T/C (dose: 67.0 mg/kg/injection, schedule: Q01DX001 (ip), vehicle: other): 102 % of control

CN(C)/C=C1\C(=O)Nc2c1c(=O)n(C)c(=O)n2C
T/C [1]: 93 % of control | T/C [2]: 90 % of control

CC12CC(c3ccccc3)C(C)(C(c3ccccc3)=C1c1ccccc1)C2(C)O (configuration not stated)
T/C [4]: 93 % of control | T/C [5]: 100 % of control | T/C [6]: 88 % of control

O/N=C1/CCCCc2ccccc21
T/C [3]: 105 % of control | T/C (dose: 200.0 mg/kg/injection, schedule: Q01DX001 (ip), vehicle: saline): 110 % of control | T/C (dose: 400.0 mg/kg/injection, schedule: Q01DX001 (ip), vehicle: saline): 96 % of control

COc1ccc(C=Nc2ccnc3cc(OC)c(OC)cc23)cc1OC
T/C [4]: 93 % of control | T/C [5]: 104 % of control | T/C [6]: 102 % of control

O=c1[nH]nc(CF)c(=O)[nH]1
T/C (dose: 5.0 mg/kg/injection, schedule: Q01DX009 (ip), vehicle: saline): 107 % of control | T/C (dose: 6.0 mg/kg/injection, schedule: Q01DX009 (ip), vehicle: saline): 108 % of control | T/C (dose: 10.0 mg/kg/injection, schedule: Q01DX009 (ip), vehicle: saline): 116 % of control | T/C (dose: 11.0 mg/kg/injection, schedule: Q01DX Z (ip), vehicle: saline): 111 % of control | T/C (dose: 12.0 mg/kg/injection, schedule: Q01DX009 (ip), vehicle: saline): 112 % of control | T/C (dose: 14.0 mg/kg/injection, schedule: Q01DX009 (ip), vehicle: saline): 104 % of control | T/C (dose: 16.0 mg/kg/injection, schedule: Q01DX Z (ip), vehicle: saline): 111 % of control | T/C (dose: 20.0 mg/kg/injection, schedule: Q01DX009 (ip), vehicle: saline): 105 % of control and 124 % of control | T/C (dose: 24.0 mg/kg/injection, schedule: Q01DX009 (ip), vehicle: saline): 122 % of control | T/C (dose: 30.0 mg/kg/injection, schedule: Q01DX009 (ip), vehicle: saline): 119 % of control | T/C (dose: 40.0 mg/kg/injection, schedule: Q01DX009 (ip), vehicle: saline): 116 % of control | T/C (dose: 50.0 mg/kg/injection, schedule: Q01DX001 (ip), vehicle: saline): 110 % of control | T/C [3]: 119 % of control

c1ccc(Nc2ccc3ccccc3c2)cc1
T/C (dose: 100.0 mg/kg/injection, schedule: Q01DX009 (ip), vehicle: saline with Tween-80): 97 % of control | T/C (dose: 100.0 mg/kg/injection, schedule: Q04DX003 (ip), vehicle: saline with Tween-80): 92 % of control | T/C (dose: 200.0 mg/kg/injection, schedule: Q01DX009 (ip), vehicle: saline with Tween-80): 89 % of control | T/C (dose: 200.0 mg/kg/injection, schedule: Q04DX003 (ip), vehicle: saline with Tween-80): 98 % of control | T/C (dose: 400.0 mg/kg/injection, schedule: Q01DX009 (ip), vehicle: saline with Tween-80): 92 % of control | T/C (dose: 400.0 mg/kg/injection, schedule: Q04DX003 (ip), vehicle: saline with Tween-80): 98 % of control
